Laboratory results reported in patent US20260347364A1, “PYRAZOLO[4,3-F]QUINAZOLINE DERIVATIVES AS MODULATORS OF G12D MUTANT KRAS USEFUL FOR THE TREATMENT OF CANCER” (JAZZ PHARMACEUTICALS IRELAND LTD., priority 2023, published 2026).

How the values were obtained:
KRAS G12D = molecular target: T1, KRAS G12D (Homo sapiens, UniProt P01116, G12D); test: HTRF nucleotide exchange assay, KRAS G12D; assay type: biochemical; settings: class symbols; for IC50: HTRF nucleotide exchange assay (NEA)
T1 construct: aa1-188 KRAS WT, HRAS WT, NRAS WT, or KRAS containing the G12D

KRAS WT = molecular target: T2, KRAS WT (Homo sapiens, UniProt P01116); test: HTRF nucleotide exchange assay, KRAS WT; assay type: biochemical; settings: class symbols; for IC50: HTRF nucleotide exchange assay (NEA)
T2 construct: aa1-188 KRAS WT

KRAS^G12D NEA (KRAS G12D)	KRAS^WT NEA (KRAS WT)	IC50 (KRAS G12D)	IC50 (KRAS WT)	SMILES
D (<49% inhibition at 10 μM)	D (<49% inhibition at 10 μM)	–	–	CN(C)C(=O)c1cc2n(n1)CCCN(c1nc(OC[C@@]34CCCN3C[C@H](F)C4)nc3cc(-c4cccc5[nH]nc(C#N)c45)c4nn(C)cc4c13)C2 [Example 83, 5-[4-(3-cyano-1H-indazol-4-yl)-2-methyl-7-[[(2R,8S)-2-fluoro-1,2,3,5,6,7-hexahydropyrrolizin-8-yl]methoxy]pyrazolo[4,3-f]quinazolin-9-yl]-N,N-dimethyl-4,6,7,8-tetrahydropyrazolo[1,5-a][1,4]diazepine-2-carboxamide]
–	–	≤ 10 nM	10 to 100 nM	Cc1cc2[nH]ncc2c(-c2cc3nc(OC[C@@]45CCCN4C[C@H](F)C5)nc(N4CCCn5nc(C(=O)N(C)C)cc5C4)c3c3cn(C)nc23)c1C(F)(F)F [Example 84, 5-[7-[[(2R,8S)-2-fluoro-1,2,3,5,6,7-hexahydropyrrolizin-8-yl]methoxy]-2-methyl-4-[6-methyl-5-(trifluoromethyl)-1H-indazol-4-yl]pyrazolo[4,3-f]quinazolin-9-yl]-N,N-dimethyl-4,6,7,8-tetrahydropyrazolo[1,5-a][1,4]diazepine-2-carboxamide]
–	D (<49% inhibition at 10 μM)	≤ 10 nM	–	Cn1cc2c(n1)c(-c1cccc3sc(N)c(C#N)c13)cc1nc(OC[C@@]34CCCN3C[C@H](F)C4)nc(N3CC4CCC(C3)N4)c12 [Example 86, 2-amino-4-[9-(3,8-diazabicyclo[3.2.1]octan-3-yl)-7-[[(2R,8S)-2-fluoro-1,2,3,5,6,7-hexahydropyrrolizin-8-yl]methoxy]-2-methyl-pyrazolo[4,3-f]quinazolin-4-yl]benzothiophene-3-carbonitrile]
–	–	≤ 10 nM	≤ 10 nM	CCc1c(F)ccc2cc(O)cc(-c3c(F)c4nc(OC[C@@]56CCCN5C[C@H](F)C6)nc(N5CCCn6nc(C(=O)N(C)C)cc6C5)c4c4cn(C)nc34)c12 [Example 87, 5-[4-(8-ethyl-7-fluoro-3-hydroxy-1-naphthyl)-5-fluoro-2-methyl-7-[[(2R,8S)-2-fluoro-1,2,3,5,6,7-hexahydropyrrolizin-8-yl]methoxy]pyrazolo[4,3-f]quinazolin-9-yl]-N,N-dimethyl-4,6,7,8-tetrahydropyrazolo[1,5-a][1,4]diazepine-2-carboxamide]
–	–	≤ 10 nM	≤ 10 nM	CCc1c(F)ccc2cc(O)cc(-c3c(F)c4nc(OC[C@@]56CCCN5C[C@H](F)C6)nc(N5CCCOCC5)c4c4cn(C)nc34)c12 [Example 88, 5-ethyl-6-fluoro-4-[5-fluoro-2-methyl-9-(1,4-oxazepan-4-yl)-7-[[(2R,8S)-2-fluoro-1,2,3,5,6,7-hexahydropyrrolizin-8-yl]methoxy]pyrazolo[4,3-f]quinazolin-4-yl]naphthalen-2-ol]
–	–	≤ 10 nM	100 to 10000 nM	CCc1c(F)ccc2cc(O)cc(-c3cc4nc(OC[C@@]56CCCN5C[C@H](F)C6)nc(N5C6CCC5CN(CCCO)C6)c4c4cn(C)nc34)c12 [Example 89, 5-ethyl-6-fluoro-4-[7-[[(2R,8S)-2-fluoro-1,2,3,5,6,7-hexahydropyrrolizin-8-yl]methoxy]-9-[3-(3-hydroxypropyl)-3,8-diazabicyclo[3.2.1]octan-8-yl]-2-methyl-pyrazolo[4,3-f]quinazolin-4-yl]naphthalen-2-ol]
D (<49% inhibition at 10 μM)	D (<49% inhibition at 10 μM)	–	–	Cn1cc2c(n1)c(-c1ccc(F)c3sc(N)c(C#N)c13)cc1nc(OC[C@@]34CCCN3C[C@H](F)C4)nc(N3C4CCC3CN(CCCO)C4)c12 [Example 90, 2-amino-7-fluoro-4-[7-[[(2R,8S)-2-fluoro-1,2,3,5,6,7-hexahydropyrrolizin-8-yl]methoxy]-9-[3-(3-hydroxypropyl)-3,8-diazabicyclo[3.2.1]octan-8-yl]-2-methyl-pyrazolo[4,3-f]quinazolin-4-yl]benzothiophene-3-carbonitrile]
–	–	≤ 10 nM	100 to 10000 nM	CCc1c(F)ccc2cc(O)cc(-c3cc4nc(OC[C@@]56CCCN5C[C@H](F)C6)nc(N5CC6CCC(C5)N6CC(C)O)c4c4cn(C)nc34)c12 (stereo partly drawn) [Example 91, 5-ethyl-6-fluoro-4-[7-[[(2R,8S)-2-fluoro-1,2,3,5,6,7-hexahydropyrrolizin-8-yl]methoxy]-9-[3-(2-hydroxypropyl)-3,8-diazabicyclo[3.2.1]octan-8-yl]-2-methyl-pyrazolo[4,3-f]quinazolin-4-yl]naphthalen-2-ol]
–	–	≤ 10 nM	≤ 10 nM	CCc1c(F)ccc2cc(O)cc(-c3c(F)c4nc(OC[C@@]56CCCN5C[C@H](F)C6)nc(N5CCOCC(C)(O)C5)c4c4cn(C)nc34)c12 (stereo partly drawn) [Example 92, 4-[4-(8-ethyl-7-fluoro-3-hydroxy-1-naphthyl)-5-fluoro-2-methyl-7-[[(2R,8S)-2-fluoro-1,2,3,5,6,7-hexahydropyrrolizin-8-yl]methoxy]pyrazolo[4,3-f]quinazolin-9-yl]-6-methyl-1,4-oxazepan-6-ol]
–	–	≤ 10 nM	≤ 10 nM	C#Cc1c(F)ccc2cc(O)cc(-c3c(F)c4nc(OC[C@@]56CCCN5C[C@H](F)C6)nc(N5CCCn6nc(C(=O)N(C)C)cc6C5)c4c4cn(C)nc34)c12 [Example 93, 5-[4-(8-ethynyl-7-fluoro-3-hydroxy-1-naphthyl)-5-fluoro-2-methyl-7-[[(2R,8S)-2-fluoro-1,2,3,5,6,7-hexahydropyrrolizin-8-yl]methoxy]pyrazolo[4,3-f]quinazolin-9-yl]-N,N-dimethyl-4,6,7,8-tetrahydropyrazolo[1,5-a][1,4]diazepine-2-carboxamide]
–	–	≤ 10 nM	≤ 10 nM	CCc1c(F)ccc2cc(O)cc(-c3cc4nc(OC[C@@]56CCCN5C[C@H](F)C6)nc(N5CCCn6nc(CO)cc6C5)c4c4cn(C)nc34)c12 [Example 94, 5-ethyl-6-fluoro-4-[9-[2-(hydroxymethyl)-4,6,7,8-tetrahydropyrazolo[1,5-a][1,4]diazepin-5-yl]-2-methyl-7-[[(2R,8S)-2-fluoro-1,2,3,5,6,7-hexahydropyrrolizin-8-yl]methoxy]pyrazolo[4,3-f]quinazolin-4-yl]naphthalen-2-ol]
–	–	≤ 10 nM	≤ 10 nM	CCc1c(F)ccc2cc(O)cc(-c3c(C)c4nc(OC[C@@]56CCCN5C[C@H](F)C6)nc(N5CCC[C@@](C)(O)C5)c4c4cn(C)nc34)c12 [Example 95, (3R)-1-[4-(8-ethyl-7-fluoro-3-hydroxy-1-naphthyl)-2,5-dimethyl-7-[[(2R,8S)-2-fluoro-1,2,3,5,6,7-hexahydropyrrolizin-8-yl]methoxy]pyrazolo[4,3-f]quinazolin-9-yl]-3-methyl-piperidin-3-ol]
–	–	≤ 10 nM	≤ 10 nM	CCc1c(F)ccc2cc(O)cc(-c3c(C)c4nc(OC[C@@]56CCCN5C[C@H](F)C6)nc(N5CC6CCC(C5)N6)c4c4cn(C)nc34)c12 [Example 96, tert-butyl 3-[4-bromo-7-[[(2R,8S)-2-fluoro-1,2,3,5,6,7-hexahydropyrrolizin-8-yl]methoxy]-2,5-dimethyl-pyrazolo[4,3-f]quinazolin-9-yl]-3,8-diazabicyclo[3.2.1]octane-8-carboxylate]
–	–	≤ 10 nM	≤ 10 nM	C#Cc1c(F)ccc2cc(O)cc(-c3c(C)c4nc(OC[C@@]56CCCN5C[C@H](F)C6)nc(N5CCCn6nc(C(=O)N(C)C)cc6C5)c4c4cn(C)nc34)c12 [Example 97, 5-[4-(8-ethynyl-7-fluoro-3-hydroxy-1-naphthyl)-2,5-dimethyl-7-[[(2R,8S)-2-fluoro-1,2,3,5,6,7-hexahydropyrrolizin-8-yl]methoxy]pyrazolo[4,3-f]quinazolin-9-yl]-N,N-dimethyl-4,6,7,8-tetrahydropyrazolo[1,5-a][1,4]diazepine-2-carboxamide]
–	–	≤ 10 nM	≤ 10 nM	C=Cc1c(F)ccc2cc(O)cc(-c3c(C)c4nc(OC[C@@]56CCCN5C[C@H](F)C6)nc(N5CCCn6nc(C(=O)N(C)C)cc6C5)c4c4cn(C)nc34)c12 [Example 98, 5-[4-(7-fluoro-3-hydroxy-8-vinyl-1-naphthyl)-2,5-dimethyl-7-[[(2R,8S)-2-fluoro-1,2,3,5,6,7-hexahydropyrrolizin-8-yl]methoxy]pyrazolo[4,3-f]quinazolin-9-yl]-N,N-dimethyl-4,6,7,8-tetrahydropyrazolo[1,5-a][1,4]diazepine-2-carboxamide]
–	–	≤ 10 nM	≤ 10 nM	CCc1c(F)ccc2cc(O)cc(-c3c(F)c4nc(OC[C@@]56CCCN5C[C@H](F)C6)nc(N5CCCC(C)(O)C5)c4c4cn(C)nc34)c12 (stereo partly drawn) [Example 100, (3R)-1-[4-bromo-5-fluoro-2-methyl-7-[[(2R,8S)-2-fluoro-1,2,3,5,6,7-hexahydropyrrolizin-8-yl]methoxy]pyrazolo[4,3-f]quinazolin-9-yl]-3-methyl-piperidin-3-ol]
–	–	≤ 10 nM	≤ 10 nM	Cc1c(-c2ccc(F)c3sc(N)c(C#N)c23)c2nn(C)cc2c2c(N3CCCn4nc(C(=O)N(C)C)cc4C3)nc(OC[C@@]34CCCN3C[C@H](F)C4)nc12 [Example 101, 5-[4-(2-amino-3-cyano-7-fluoro-benzothiophen-4-yl)-7-[[(2R,8S)-2-fluoro-1,2,3,5,6,7-hexahydropyrrolizin-8-yl]methoxy]-2,5-dimethyl-pyrazolo[4,3-f]quinazolin-9-yl]-N,N-dimethyl-4,6,7,8-tetrahydropyrazolo[1,5-a][1,4]diazepine-2-carboxamide]

SMILES	KRAS^G12D NEA (KRAS G12D)	KRAS^WT NEA (KRAS WT)	IC50 (KRAS G12D)	IC50 (KRAS WT)
CCc1c(F)ccc2cc(O)cc(-c3c(F)c4nc(OC[C@@]56CCCN5C[C@H](F)C6)nc(N5CC6CCC(C5)N6)c4c4cn(C)nc34)c12 [Example 99, 4-[9-(3,8-diazabicyclo[3.2.1]octan-3-yl)-5-fluoro-2-methyl-7-[[(2R,8S)-2-fluoro-1,2,3,5,6,7-hexahydropyrrolizin-8-yl]methoxy]pyrazolo[4,3-f]quinazolin-4-yl]-5-ethyl-6-fluoro-naphthalen-2-ol]	–	–	≤ 10 nM	≤ 10 nM
